# Earlier results in patent US20240398845A1, “USE OF SGLT-2 INHIBITORS FOR THE PREVENTION AND/OR TREATMENT OF CARDIAC DISEASES IN NON-HUMAN MAMMALS EXCLUDING FELINES, IN PARTICULAR CANINES” (BOEHRINGER INGELHEIM VETMEDICA GMBH, priority 2021, published 2024).
# What was measured:
# [1] = system: canine atrial fibrillation model; conditions: cited from earlier work
# [2] = system: mitral regurgitation-induced myocardial dysfunction; conditions: cited from earlier work
# [3] = system: adults with heart failure and reduced ejection fraction; conditions: with and without diabetes; cited from earlier work
# [4] = system: non-diabetic heart failure; conditions: cited from earlier work
# Stage B2 dogs (MMVD) = conditions: cited from earlier work
smiles,measurement,setting,value
"Cc1ccc([C@@H]2O[C@H](CO)[C@@H](O)[C@H](O)[C@H]2O)cc1Cc1ccc(-c2ccc(F)cc2)s1 [canagliflozin, Canagliflozin]",atrial remodeling,[1],suppresses atrial remodeling
"CCOc1ccc(Cc2cc([C@@H]3O[C@H](CO)[C@@H](O)[C@H](O)[C@H]3O)ccc2Cl)cc1 [dapagliflozin, Dapagliflozin]",cardiac hemodynamics and arrhythmogenesis,[2],improves cardiac hemodynamics and mitigates arrhythmogenesis
"OC[C@H]1O[C@@H](c2ccc(Cl)c(Cc3ccc(O[C@H]4CCOC4)cc3)c2)[C@H](O)[C@@H](O)[C@@H]1O [empagliflozin, Empagliflozin]",risk for the composite endpoint of cardiovascular death or hospitalization due to heart failure,[3],reduced the risk
same,adverse left ventricular remodeling,[4],ameliorates adverse left ventricular remodeling
COc1ccc(-c2nc3ccc(C4=NNC(=O)CC4C)cc3[nH]2)cc1 (centres unmarked) [pimobendan],preclinical period,Stage B2 dogs (MMVD),prolongation of the preclinical period
